Experimental findings from patent US7138428B2, “Compounds isolated from gamboge resin having activity in inhibiting the growth of tumor/cancer cells and pharmaceutical compositions comprising the same” (Taiwan Sunpan Biotechnology Development Company, Ltd., priority 2004, dated 2006) are described below.

In the experiment the test system is tumor/cancer cells. The experiment is described as follows: in vitro anti-cancer tests, overall statements. Format: cell-based, human. Conditions: summary of in vitro results.

Text: The cancer cell growth inhibition test was primarily used to detect the effect of a candidate drug on cancer cell proliferation. The working principle involved therein is the ability of viable cells to shift alamarBlue (Biosource, USA) from its originally non-fluorescent oxidized state to a reduced form (fluorescent, red) having fluorescence via metabolic reaction. According to the fluorescent data result generated by the alamarBlue reagent thus obtained, the proliferation of the viable cells and cell activity can be quantified for detection.

As to `C=C(C)[C@@H]1CC[C@]2(C(=O)O)CC[C@]3(C)[C@H](CC[C@@H]4[C@@]5(C)CC[C@H](O)C(C)(C)[C@@H]5CC[C@]43C)[C@@H]12` [TSB-1, betulinic acid], the “effect of inhibiting tumor/cancer cell growth (in words)” value is “may not be as effective as products TSB-2 to TSB-8”.
